Experiments:
Assay in all cases: relative viability (nuclei count vs DMSO), 5 days (fraction); higher = more cells survive
BX 795 + Palbociclib = compound: O=C(NCCCNc1nc(Nc2cccc(NC(=O)N3CCCC3)c2)ncc1I)c1cccs1 [BX 795] + CC(=O)c1c(C)c2cnc(Nc3ccc(N4CCNCC4)cn3)nc2n(C2CCCC2)c1=O [Palbociclib] (partner 0.5 µM)
Method in brief: (§1)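 Nuclei were stained with Hoechst during a one-step fixation (final 0.05% Triton X-100, 1% formaldehyde, 1 ug/ml Hoechst) carried out 5 days after dosing, then counted on 4× images. The cells, lung cancer lines in 1536-well plates, had been dosed by pin tool the day after seeding with one drug alone or a fixed anchor-drug dose plus five library-drug doses (not always all listed) in √10 steps. Relative viability is the nuclei count in treated wells divided by that in vehicle wells, and each value is the median of duplicate plates.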

BX 795 + Alpelisib = compound: O=C(NCCCNc1nc(Nc2cccc(NC(=O)N3CCCC3)c2)ncc1I)c1cccs1 [BX 795] + Cc1nc(NC(=O)N2CCC[C@H]2C(N)=O)sc1-c1ccnc(C(C)(C)C(F)(F)F)c1 [Alpelisib] (partner 2 µM)
Method in brief: as §1

BX 795 + Phenformin = compound: O=C(NCCCNc1nc(Nc2cccc(NC(=O)N3CCCC3)c2)ncc1I)c1cccs1 [BX 795] + N=C(N)NC(=N)NCCc1ccccc1 [Phenformin] (partner 250 µM)
Method in brief: as §1

BX 795 + Pemetrexed = compound: O=C(NCCCNc1nc(Nc2cccc(NC(=O)N3CCCC3)c2)ncc1I)c1cccs1 [BX 795] + Nc1nc2[nH]cc(CCc3ccc(C(=O)N[C@@H](CCC(=O)O)C(=O)O)cc3)c2c(=O)[nH]1 [Pemetrexed] (partner 0.2 µM)
Method in brief: as §1

For NCI-H1793, which relative viability (BX 795 + Palbociclib; first compound 0.04 µM) is on record?
Its relative viability is 0.386.

What about the relative viability (BX 795 + Palbociclib; first compound 0.1265 µM) of the same cell line?
Its relative viability is 0.246.

And the relative viability (BX 795 + Palbociclib; first compound 0.4 µM)?
Its relative viability is 0.384.

And the relative viability (BX 795 + Palbociclib; first compound 1.265 µM)?
Its relative viability is 0.296.

And the relative viability (BX 795 + Alpelisib; first compound 0.04 µM)?
Its relative viability is 0.675.

What about the relative viability (BX 795 + Alpelisib; first compound 0.1265 µM) of the same cell line?
Its relative viability is 0.775.

And the relative viability (BX 795 + Alpelisib; first compound 0.4 µM)?
Its relative viability is 0.647.

What about the relative viability (BX 795 + Alpelisib; first compound 1.265 µM) of the same cell line?
The relative viability was 0.613.

And the relative viability (BX 795 + Phenformin; first compound 0.04 µM)?
The relative viability was 0.358.

What about the relative viability (BX 795 + Phenformin; first compound 0.1265 µM) of the same cell line?
The relative viability was 0.35.

What about the relative viability (BX 795 + Phenformin; first compound 0.4 µM) of the same cell line?
The relative viability was 0.366.

And the relative viability (BX 795 + Phenformin; first compound 1.265 µM)?
Its relative viability is 0.289.

And the relative viability (BX 795 + Pemetrexed; first compound 0.04 µM)?
Its relative viability is 0.872.

And the relative viability (BX 795 + Pemetrexed; first compound 0.1265 µM)?
Its relative viability is 0.628.

And the relative viability (BX 795 + Pemetrexed; first compound 0.4 µM)?
The relative viability was 0.856.

What about the relative viability (BX 795 + Pemetrexed; first compound 1.265 µM) of the same cell line?
The relative viability was 0.711.

What does the source list for NCI-H1944?
relative viability (BX 795 + Palbociclib; first compound 0.04 µM): 0.381; relative viability (BX 795 + Palbociclib; first compound 0.1265 µM): 0.33; relative viability (BX 795 + Palbociclib; first compound 0.4 µM): 0.411; relative viability (BX 795 + Palbociclib; first compound 1.265 µM): 0.325; relative viability (BX 795 + Alpelisib; first compound 0.04 µM): 0.959; relative viability (BX 795 + Alpelisib; first compound 0.1265 µM): 0.806; relative viability (BX 795 + Alpelisib; first compound 0.4 µM): 0.893; relative viability (BX 795 + Alpelisib; first compound 1.265 µM): 0.754; relative viability (BX 795 + Phenformin; first compound 0.04 µM): 0.254; relative viability (BX 795 + Phenformin; first compound 0.1265 µM): 0.203; relative viability (BX 795 + Phenformin; first compound 0.4 µM): 0.234; relative viability (BX 795 + Phenformin; first compound 1.265 µM): 0.191; relative viability (BX 795 + Pemetrexed; first compound 0.04 µM): 0.616; relative viability (BX 795 + Pemetrexed; first compound 0.1265 µM): 0.577; relative viability (BX 795 + Pemetrexed; first compound 0.4 µM): 0.41; relative viability (BX 795 + Pemetrexed; first compound 1.265 µM): 0.606

How did the relative viability (BX 795 + Palbociclib; first compound 0.04 µM) turn out when NCI-H2170 was run?
Its relative viability is 0.364.

And the relative viability (BX 795 + Palbociclib; first compound 0.1265 µM)?
The relative viability was 0.395.

And the relative viability (BX 795 + Palbociclib; first compound 0.4 µM)?
The relative viability was 0.394.

What about the relative viability (BX 795 + Palbociclib; first compound 1.265 µM) of the same cell line?
Its relative viability is 0.381.

What about the relative viability (BX 795 + Alpelisib; first compound 0.04 µM) of the same cell line?
The relative viability was 0.859.

And the relative viability (BX 795 + Alpelisib; first compound 0.1265 µM)?
The relative viability was 0.92.

And the relative viability (BX 795 + Alpelisib; first compound 0.4 µM)?
Its relative viability is 0.864.

What about the relative viability (BX 795 + Alpelisib; first compound 1.265 µM) of the same cell line?
The relative viability was 0.751.

What about the relative viability (BX 795 + Phenformin; first compound 0.04 µM) of the same cell line?
The relative viability was 0.46.

What about the relative viability (BX 795 + Phenformin; first compound 0.1265 µM) of the same cell line?
Its relative viability is 0.383.

What about the relative viability (BX 795 + Phenformin; first compound 0.4 µM) of the same cell line?
The relative viability was 0.446.

What about the relative viability (BX 795 + Phenformin; first compound 1.265 µM) of the same cell line?
The relative viability was 0.413.

What about the relative viability (BX 795 + Pemetrexed; first compound 0.04 µM) of the same cell line?
The relative viability was 0.271.

What about the relative viability (BX 795 + Pemetrexed; first compound 0.1265 µM) of the same cell line?
Its relative viability is 0.286.

And the relative viability (BX 795 + Pemetrexed; first compound 0.4 µM)?
Its relative viability is 0.243.

And the relative viability (BX 795 + Pemetrexed; first compound 1.265 µM)?
The relative viability was 0.249.

For NCI-H2342, which relative viability (BX 795 + Palbociclib; first compound 0.04 µM) is on record?
The relative viability was 0.599.

And the relative viability (BX 795 + Palbociclib; first compound 0.1265 µM)?
Its relative viability is 0.518.

What about the relative viability (BX 795 + Palbociclib; first compound 0.4 µM) of the same cell line?
Its relative viability is 0.47.

What about the relative viability (BX 795 + Palbociclib; first compound 1.265 µM) of the same cell line?
Its relative viability is 0.498.

What about the relative viability (BX 795 + Phenformin; first compound 0.04 µM) of the same cell line?
Its relative viability is 0.643.

And the relative viability (BX 795 + Phenformin; first compound 0.1265 µM)?
The relative viability was 0.515.

What about the relative viability (BX 795 + Phenformin; first compound 0.4 µM) of the same cell line?
Its relative viability is 0.538.

What about the relative viability (BX 795 + Phenformin; first compound 1.265 µM) of the same cell line?
The relative viability was 0.544.

What about the relative viability (BX 795 + Pemetrexed; first compound 0.04 µM) of the same cell line?
The relative viability was 0.782.

What about the relative viability (BX 795 + Pemetrexed; first compound 0.1265 µM) of the same cell line?
Its relative viability is 0.718.

And the relative viability (BX 795 + Pemetrexed; first compound 0.4 µM)?
The relative viability was 0.758.

And the relative viability (BX 795 + Pemetrexed; first compound 1.265 µM)?
The relative viability was 0.715.

What does the source list for SK-MES-1?
relative viability (BX 795 + Palbociclib; first compound 0.04 µM): 0.303; relative viability (BX 795 + Palbociclib; first compound 0.1265 µM): 0.302; relative viability (BX 795 + Palbociclib; first compound 0.4 µM): 0.271; relative viability (BX 795 + Palbociclib; first compound 1.265 µM): 0.286; relative viability (BX 795 + Alpelisib; first compound 0.04 µM): 1.02; relative viability (BX 795 + Alpelisib; first compound 0.1265 µM): 0.909; relative viability (BX 795 + Alpelisib; first compound 0.4 µM): 0.925; relative viability (BX 795 + Alpelisib; first compound 1.265 µM): 0.641; relative viability (BX 795 + Phenformin; first compound 0.04 µM): 0.691; relative viability (BX 795 + Phenformin; first compound 0.1265 µM): 0.628; relative viability (BX 795 + Phenformin; first compound 0.4 µM): 0.592; relative viability (BX 795 + Phenformin; first compound 1.265 µM): 0.419; relative viability (BX 795 + Pemetrexed; first compound 0.04 µM): 0.923; relative viability (BX 795 + Pemetrexed; first compound 0.1265 µM): 0.854; relative viability (BX 795 + Pemetrexed; first compound 0.4 µM): 0.612; relative viability (BX 795 + Pemetrexed; first compound 1.265 µM): 0.649
